Data: patent publication US8415469B2, “Compounds and methods for kinase modulation, and indications therefor” (Plexxikon Inc., priority 2005, dated 2013)

Legend:
Type in all cases: biochemical
[1] = molecular target: T1, Flt4 (Homo sapiens, UniProt P35916); assay: AlphaScreen kinase assay, Flt4; conditions: read-out: IC50, activity toward kinase Flt4
T1 construct: purchased ProQinase GmbH (Freiburg, Germany)
In short: (§1)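 Inhibition reads as diminished acceptor emission, since unphosphorylated peptide fails to bridge antibody acceptor beads and streptavidin donor beads. Titration: eight points, 1:3 steps, stocks at 20 mM in DMSO.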

[2] = molecular target: T2, Met (Homo sapiens, UniProt P08581); assay: AlphaScreen kinase assay, Met; conditions: read-out: IC50, activity toward kinase Met
T2 construct: P1818.pETN6 BI-PTP MET G1056-G1364-X WT; His6 (N); made in house; host or cells: E. coli (PTP1B co-expressed)
In short: as §1

[3] = molecular target: T3, Ret (Homo sapiens, UniProt P07949); assay: AlphaScreen kinase assay, Ret; conditions: read-out: IC50, activity toward kinase Ret
T3 construct: P1378.pET-SF BI-PTP RET H661-R1012 HIS; made in house
T3 sequence (P07949 with tags, fused parts or gaps): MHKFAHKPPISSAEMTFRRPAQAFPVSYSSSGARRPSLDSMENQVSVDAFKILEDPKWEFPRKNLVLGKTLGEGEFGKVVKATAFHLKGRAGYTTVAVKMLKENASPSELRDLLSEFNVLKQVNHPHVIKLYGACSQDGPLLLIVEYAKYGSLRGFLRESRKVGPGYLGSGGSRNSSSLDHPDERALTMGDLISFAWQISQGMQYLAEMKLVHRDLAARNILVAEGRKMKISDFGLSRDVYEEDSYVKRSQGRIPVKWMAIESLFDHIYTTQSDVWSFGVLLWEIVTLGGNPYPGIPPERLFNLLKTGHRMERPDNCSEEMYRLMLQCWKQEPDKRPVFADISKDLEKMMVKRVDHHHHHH

[4] = molecular target: T4, Kit (Homo sapiens, UniProt P10721); assay: AlphaScreen kinase assay, Kit; conditions: read-out: IC50, activity toward kinase Kit
T4 construct: P1332.N6 BI PTP KIT M552-K948-X COD; His6 (N); made in house; host or cells: E. coli (PTP1B co-expressed)

[5] = molecular target: T5, Jnk3 (Homo sapiens, UniProt P53779); assay: AlphaScreen kinase assay, Jnk3; conditions: read-out: IC50, activity toward kinase Jnk3
T5 construct: purchased Upstate Biotechnology

[6] = molecular target: T6, Kdr (Homo sapiens, UniProt P35968); assay: Z'-Lyte FRET kinase assay (Invitrogen), Kdr; conditions: read-out: IC50, activity toward kinase Kdr
T6 construct: purchased Invitrogen (assay run by Invitrogen)

[7] = molecular target: T7, Stk6 (Homo sapiens, UniProt O14965); assay: Z'-Lyte FRET kinase assay (Invitrogen), Stk6; conditions: read-out: IC50, activity toward kinase Stk6
T7 construct: purchased Invitrogen (Carlsbad, Calif.), screening service
T7 sequence (O14965 1-403): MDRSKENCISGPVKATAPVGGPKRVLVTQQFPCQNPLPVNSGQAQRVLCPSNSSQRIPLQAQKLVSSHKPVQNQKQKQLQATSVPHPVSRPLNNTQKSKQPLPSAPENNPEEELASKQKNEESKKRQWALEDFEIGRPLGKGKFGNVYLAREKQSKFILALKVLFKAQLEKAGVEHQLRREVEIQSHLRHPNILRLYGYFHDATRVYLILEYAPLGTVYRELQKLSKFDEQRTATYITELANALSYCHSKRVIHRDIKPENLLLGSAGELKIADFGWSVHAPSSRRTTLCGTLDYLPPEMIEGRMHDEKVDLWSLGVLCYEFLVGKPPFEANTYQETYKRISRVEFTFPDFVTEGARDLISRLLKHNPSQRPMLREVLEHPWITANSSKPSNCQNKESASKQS
Text: For example, direct radiometric, indirect FRET or AlphaScreen assays may be used to assess the level of phosphorylation of a substrate in the presence of test compounds in order to determine the inhibitory affect of the compound on the kinase. […] For these assays, compounds of the invention were screened by Invitrogen using Z′-Lyte™ kinase assay.
Briefly, the Invitrogen kinase assay involves use of a specific peptide substrate optimized for each kinase, containing a fluorophore at each end that make up the FRET pair. The peptide sensitivity to proteolytic cleavage depends on phosphorylation of the peptide. Non-phosphorylated peptide is cleaved by a protease while peptide phosphorylated by the kinase is not cleaved. Cleavage of the peptide disrupts the FRET between the donor (coumarin) and acceptor (fluorescein) fluorophores, resulting in an increase in the ratio of donor emission to acceptor emission. The emission ratio of coumarin to fluorescein is used to assess the reaction progress. […] Thus, the assay involves a kinase reaction in the presence of varying concentrations of a given compound, a development reaction with site specific protease, and detection of the fluorescent emission ratio of coumarin and fluorscein. […] Reaction conditions for each kinase are determined to provide optimal reaction times, incubation temperature, kinase and ATP concentrations. Test samples are made up in 1× kinase buffer (50 mM HEPES pH 7.5, 50 mM MgCl2, 5 mM EGTA, 0.05% BRIJ-35) and compound at desired concentration prepared in DMSO such that the final DMSO is 1%. […] All kinase except for MAP2K1 were at 10 μM ATP in the kinase reaction, while MAP2K1 was at 100 μM. Samples are mixed and the kinase reaction is incubated 1 hour at room temperature, after which 5 μl of development solution is added and mixed. After incubation for another 1 hour at room temperature, 5 μl of stop reagent is added to each sample and mixed. The fluorescence signals are measured to determine the emission ratio.

[8] = molecular target: T8, Jnk2 (Homo sapiens, UniProt P45984); assay: AlphaScreen kinase assay, Jnk2; conditions: read-out: IC50, activity toward kinase Jnk2
T8 construct: purchased Roche Protein Expression Group (Indianapolis, IN)
In short: as §1

[9] = molecular target: T9, Abl (Homo sapiens, UniProt P00519); assay: AlphaScreen kinase assay, Abl; conditions: read-out: activity toward kinase Abl, IC50
T9 construct: P1121. pET-SPEC BI-PTP Abl G227-V515-X; His6 (N); made in house; host or cells: E. coli (PTP1B co-expressed)
T9 sequence (P00519 with tags, fused parts or gaps): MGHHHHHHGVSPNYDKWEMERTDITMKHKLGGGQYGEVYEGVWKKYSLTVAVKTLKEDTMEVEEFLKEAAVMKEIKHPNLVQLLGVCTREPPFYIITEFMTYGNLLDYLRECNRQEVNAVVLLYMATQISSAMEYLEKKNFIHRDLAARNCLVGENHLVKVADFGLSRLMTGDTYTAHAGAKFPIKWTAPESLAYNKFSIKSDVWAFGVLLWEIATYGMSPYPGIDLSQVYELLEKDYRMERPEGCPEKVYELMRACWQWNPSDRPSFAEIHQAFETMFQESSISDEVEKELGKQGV
In short: as §1

[10] = molecular target: T10, FGFR1 (Homo sapiens, UniProt P11362, C488A/C584S); assay: AlphaScreen kinase assay, FGFR1; conditions: read-out: IC50, activity toward kinase FGFR
T10 construct: P1351.pET N6 BI-PTP FGFR A458-E765-X C488A, C584S; made in house; host or cells: E. coli (PTP1B co-expressed)

[11] = molecular target: T11, Pyk2 (Homo sapiens, UniProt Q14289); assay: AlphaScreen kinase assay, Pyk2; conditions: read-out: IC50, activity toward kinase Pyk2
T11 construct: purchased Upstate Biotechnology

[12] = molecular target: T12, MAP2K1 (Homo sapiens, UniProt Q02750); assay: Z'-Lyte FRET kinase assay (Invitrogen), MAP2K1; conditions: read-out: IC50, activity toward kinase MAP2K1
T12 construct: purchased Invitrogen (assay run by Invitrogen)

[13] = molecular target: T13, Flt1 (Homo sapiens, UniProt P17948); assay: AlphaScreen kinase assay, Flt1; conditions: read-out: IC50, activity toward kinase Flt1
T13 construct: P1826.pETN6 BI-PTP FLT1 M799-D1165-X WT; His6 (N); made in house; host or cells: E. coli (PTP1B co-expressed)
T13 sequence (P17948 with tags, fused parts or gaps): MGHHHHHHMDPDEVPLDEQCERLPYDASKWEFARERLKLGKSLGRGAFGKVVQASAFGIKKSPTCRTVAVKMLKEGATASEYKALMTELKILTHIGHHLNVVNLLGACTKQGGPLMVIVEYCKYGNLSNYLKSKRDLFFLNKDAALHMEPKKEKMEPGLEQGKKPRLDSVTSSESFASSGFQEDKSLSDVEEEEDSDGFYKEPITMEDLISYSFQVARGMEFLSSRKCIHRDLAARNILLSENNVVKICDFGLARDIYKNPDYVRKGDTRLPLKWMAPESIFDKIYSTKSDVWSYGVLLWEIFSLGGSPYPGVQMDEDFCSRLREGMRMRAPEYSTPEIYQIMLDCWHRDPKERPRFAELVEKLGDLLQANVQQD

[14] = molecular target: T14, Btk (Homo sapiens, UniProt Q06187); assay: Z'-Lyte FRET kinase assay (Invitrogen), Btk; conditions: read-out: IC50, activity toward kinase Btk
T14 construct: purchased Invitrogen (assay run by Invitrogen)

[15] = molecular target: T15, Fms (Homo sapiens, UniProt P07333); assay: AlphaScreen kinase assay, Fms; conditions: read-out: IC50, activity toward kinase Fms
T15 construct: purchased Upstate Biotechnology

[16] = molecular target: T16, B-Raf V600E (Homo sapiens, UniProt P15056, V600E); assay: AlphaScreen kinase assay, B-Raf V600E; conditions: read-out: IC50, activity toward kinase B-Raf V600E
T16 construct: P4254. pFastBacBD-CDC37 BRAF D437-K722-X, V600E; His6 with pFastBac HT leader (TEV site) (N); made in house; host or cells: Sf9 (baculovirus; chaperone CDC37 co-expressed)

[17] = molecular target: T17, Src (Homo sapiens, UniProt P12931); assay: AlphaScreen kinase assay, Src; conditions: read-out: IC50, activity toward kinase Src
T17 construct: P1144. pET-N6 BI-PTP SRC V86-L536-X; made in house

[18] = molecular target: T18, c-Raf-1 (Homo sapiens, UniProt P04049); assay: AlphaScreen kinase assay, c-Raf-1; conditions: read-out: IC50, activity toward kinase c-Raf-1
T18 construct: purchased Upstate Biotechnology

[19] = molecular target: T19, Jnk1 (Homo sapiens, UniProt P45983); assay: AlphaScreen kinase assay, Jnk1; conditions: read-out: IC50, activity toward kinase Jnk1
T19 construct: purchased Upstate Biotechnology

[20] = molecular target: T20, B-Raf (Homo sapiens, UniProt P15056); assay: AlphaScreen kinase assay, B-Raf; conditions: read-out: IC50, activity toward kinase B-Raf
T20 construct: purchased Upstate Biotechnology

[21] = molecular target: T21, Zap70 (Homo sapiens, UniProt P43403); assay: AlphaScreen kinase assay, Zap70; conditions: read-out: IC50, activity toward kinase Zap70
T21 construct: P1868.pFastBac1 ZAP70 D327-G606 HIS, WT; His7 (HHHHHHH) (C); made in house
T21 sequence (P43403 with tags, fused parts or gaps): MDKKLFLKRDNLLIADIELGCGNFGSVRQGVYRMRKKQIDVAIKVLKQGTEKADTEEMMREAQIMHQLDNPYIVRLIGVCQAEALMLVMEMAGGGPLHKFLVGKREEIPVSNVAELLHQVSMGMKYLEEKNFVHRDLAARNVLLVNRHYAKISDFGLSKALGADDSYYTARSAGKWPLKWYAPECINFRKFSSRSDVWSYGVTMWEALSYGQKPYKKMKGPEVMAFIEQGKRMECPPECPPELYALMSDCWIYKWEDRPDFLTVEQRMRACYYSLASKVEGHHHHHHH
In short: as §1

Measured: IC50

T10 sequence (P11362 458-765 C488A/C584S): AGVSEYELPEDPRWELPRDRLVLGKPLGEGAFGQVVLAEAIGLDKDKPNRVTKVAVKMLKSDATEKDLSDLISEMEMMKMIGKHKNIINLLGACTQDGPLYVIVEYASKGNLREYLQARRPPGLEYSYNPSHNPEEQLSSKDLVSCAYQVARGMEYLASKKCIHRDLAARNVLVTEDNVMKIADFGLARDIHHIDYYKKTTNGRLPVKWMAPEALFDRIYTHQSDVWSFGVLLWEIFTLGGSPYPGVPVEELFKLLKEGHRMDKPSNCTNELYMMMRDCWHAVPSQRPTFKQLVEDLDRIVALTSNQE
T1 sequence (P35916 25-1363): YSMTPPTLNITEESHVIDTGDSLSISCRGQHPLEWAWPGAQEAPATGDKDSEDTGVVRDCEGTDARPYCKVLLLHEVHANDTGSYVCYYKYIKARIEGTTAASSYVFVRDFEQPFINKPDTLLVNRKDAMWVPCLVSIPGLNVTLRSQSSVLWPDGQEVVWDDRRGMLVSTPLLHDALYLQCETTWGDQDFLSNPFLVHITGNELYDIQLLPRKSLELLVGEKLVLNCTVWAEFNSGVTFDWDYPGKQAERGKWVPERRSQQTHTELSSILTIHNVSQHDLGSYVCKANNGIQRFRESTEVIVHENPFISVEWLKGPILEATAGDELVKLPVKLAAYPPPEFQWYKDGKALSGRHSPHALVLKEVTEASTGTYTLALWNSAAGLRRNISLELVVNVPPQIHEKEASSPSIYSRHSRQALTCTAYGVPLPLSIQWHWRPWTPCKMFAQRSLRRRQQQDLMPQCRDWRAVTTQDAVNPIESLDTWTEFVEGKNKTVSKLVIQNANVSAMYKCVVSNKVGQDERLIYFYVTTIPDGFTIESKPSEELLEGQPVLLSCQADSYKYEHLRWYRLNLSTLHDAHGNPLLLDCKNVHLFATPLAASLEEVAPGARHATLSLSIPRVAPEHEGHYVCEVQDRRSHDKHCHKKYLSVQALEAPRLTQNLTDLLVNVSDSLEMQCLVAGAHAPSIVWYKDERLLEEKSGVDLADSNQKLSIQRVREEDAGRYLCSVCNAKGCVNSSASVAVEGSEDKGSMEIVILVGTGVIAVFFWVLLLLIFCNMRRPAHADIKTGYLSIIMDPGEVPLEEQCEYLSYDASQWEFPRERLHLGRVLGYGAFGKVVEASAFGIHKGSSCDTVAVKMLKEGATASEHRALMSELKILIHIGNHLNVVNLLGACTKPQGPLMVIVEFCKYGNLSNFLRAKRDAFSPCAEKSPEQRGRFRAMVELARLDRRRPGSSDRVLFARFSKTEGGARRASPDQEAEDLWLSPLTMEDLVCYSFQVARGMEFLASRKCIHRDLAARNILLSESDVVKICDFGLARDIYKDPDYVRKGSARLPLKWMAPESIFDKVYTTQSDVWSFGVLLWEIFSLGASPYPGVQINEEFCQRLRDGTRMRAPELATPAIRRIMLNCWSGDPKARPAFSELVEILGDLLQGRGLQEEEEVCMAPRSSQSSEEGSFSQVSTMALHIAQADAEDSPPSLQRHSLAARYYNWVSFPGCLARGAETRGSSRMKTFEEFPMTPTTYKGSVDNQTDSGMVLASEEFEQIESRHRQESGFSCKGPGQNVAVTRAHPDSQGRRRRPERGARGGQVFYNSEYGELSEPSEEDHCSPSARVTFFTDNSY
T12 sequence (Q02750 whole entry): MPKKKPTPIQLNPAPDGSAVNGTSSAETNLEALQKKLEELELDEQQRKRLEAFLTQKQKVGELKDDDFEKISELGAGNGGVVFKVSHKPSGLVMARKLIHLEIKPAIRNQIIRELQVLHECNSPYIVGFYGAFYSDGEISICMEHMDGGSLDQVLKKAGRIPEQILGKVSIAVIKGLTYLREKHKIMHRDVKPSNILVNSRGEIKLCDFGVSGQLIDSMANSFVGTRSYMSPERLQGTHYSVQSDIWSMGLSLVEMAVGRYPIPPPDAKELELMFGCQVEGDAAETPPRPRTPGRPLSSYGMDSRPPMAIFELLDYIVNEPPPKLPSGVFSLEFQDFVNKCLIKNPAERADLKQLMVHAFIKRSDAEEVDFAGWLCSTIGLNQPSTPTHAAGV
T16 sequence (P15056 with tags, fused parts or gaps V600E): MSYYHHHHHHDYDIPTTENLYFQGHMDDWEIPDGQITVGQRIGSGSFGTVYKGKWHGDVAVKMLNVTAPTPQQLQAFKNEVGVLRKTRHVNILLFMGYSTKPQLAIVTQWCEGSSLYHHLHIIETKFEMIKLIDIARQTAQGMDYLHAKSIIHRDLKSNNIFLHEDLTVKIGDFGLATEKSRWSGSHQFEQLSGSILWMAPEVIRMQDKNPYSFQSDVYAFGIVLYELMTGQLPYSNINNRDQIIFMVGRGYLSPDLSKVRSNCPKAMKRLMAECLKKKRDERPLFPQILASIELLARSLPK
T4 sequence (P10721 with tags, fused parts or gaps): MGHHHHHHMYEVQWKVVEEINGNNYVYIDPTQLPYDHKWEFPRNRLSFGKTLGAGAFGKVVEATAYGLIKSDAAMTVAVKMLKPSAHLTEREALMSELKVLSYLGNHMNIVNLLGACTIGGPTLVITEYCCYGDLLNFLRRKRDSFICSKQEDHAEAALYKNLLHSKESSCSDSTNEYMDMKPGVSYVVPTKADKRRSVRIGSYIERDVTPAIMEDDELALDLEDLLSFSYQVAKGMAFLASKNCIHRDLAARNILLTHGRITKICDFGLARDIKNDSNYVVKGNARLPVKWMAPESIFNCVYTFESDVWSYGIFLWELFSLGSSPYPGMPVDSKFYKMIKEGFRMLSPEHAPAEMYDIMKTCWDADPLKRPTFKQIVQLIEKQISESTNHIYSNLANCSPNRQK
T5 sequence (P53779 whole entry): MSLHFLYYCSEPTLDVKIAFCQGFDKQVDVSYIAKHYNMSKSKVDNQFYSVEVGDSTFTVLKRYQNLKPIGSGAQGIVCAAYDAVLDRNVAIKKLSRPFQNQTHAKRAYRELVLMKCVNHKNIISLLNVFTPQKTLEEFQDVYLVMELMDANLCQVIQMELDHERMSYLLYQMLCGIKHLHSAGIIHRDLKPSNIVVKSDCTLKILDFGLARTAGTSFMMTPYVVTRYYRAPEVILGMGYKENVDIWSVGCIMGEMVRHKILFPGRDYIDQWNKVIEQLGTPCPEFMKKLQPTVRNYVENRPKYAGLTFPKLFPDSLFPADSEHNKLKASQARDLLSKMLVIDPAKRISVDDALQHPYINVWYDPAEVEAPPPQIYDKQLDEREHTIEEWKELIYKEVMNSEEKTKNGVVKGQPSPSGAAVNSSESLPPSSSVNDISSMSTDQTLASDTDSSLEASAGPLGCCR
T6 sequence (P35968 20-1356): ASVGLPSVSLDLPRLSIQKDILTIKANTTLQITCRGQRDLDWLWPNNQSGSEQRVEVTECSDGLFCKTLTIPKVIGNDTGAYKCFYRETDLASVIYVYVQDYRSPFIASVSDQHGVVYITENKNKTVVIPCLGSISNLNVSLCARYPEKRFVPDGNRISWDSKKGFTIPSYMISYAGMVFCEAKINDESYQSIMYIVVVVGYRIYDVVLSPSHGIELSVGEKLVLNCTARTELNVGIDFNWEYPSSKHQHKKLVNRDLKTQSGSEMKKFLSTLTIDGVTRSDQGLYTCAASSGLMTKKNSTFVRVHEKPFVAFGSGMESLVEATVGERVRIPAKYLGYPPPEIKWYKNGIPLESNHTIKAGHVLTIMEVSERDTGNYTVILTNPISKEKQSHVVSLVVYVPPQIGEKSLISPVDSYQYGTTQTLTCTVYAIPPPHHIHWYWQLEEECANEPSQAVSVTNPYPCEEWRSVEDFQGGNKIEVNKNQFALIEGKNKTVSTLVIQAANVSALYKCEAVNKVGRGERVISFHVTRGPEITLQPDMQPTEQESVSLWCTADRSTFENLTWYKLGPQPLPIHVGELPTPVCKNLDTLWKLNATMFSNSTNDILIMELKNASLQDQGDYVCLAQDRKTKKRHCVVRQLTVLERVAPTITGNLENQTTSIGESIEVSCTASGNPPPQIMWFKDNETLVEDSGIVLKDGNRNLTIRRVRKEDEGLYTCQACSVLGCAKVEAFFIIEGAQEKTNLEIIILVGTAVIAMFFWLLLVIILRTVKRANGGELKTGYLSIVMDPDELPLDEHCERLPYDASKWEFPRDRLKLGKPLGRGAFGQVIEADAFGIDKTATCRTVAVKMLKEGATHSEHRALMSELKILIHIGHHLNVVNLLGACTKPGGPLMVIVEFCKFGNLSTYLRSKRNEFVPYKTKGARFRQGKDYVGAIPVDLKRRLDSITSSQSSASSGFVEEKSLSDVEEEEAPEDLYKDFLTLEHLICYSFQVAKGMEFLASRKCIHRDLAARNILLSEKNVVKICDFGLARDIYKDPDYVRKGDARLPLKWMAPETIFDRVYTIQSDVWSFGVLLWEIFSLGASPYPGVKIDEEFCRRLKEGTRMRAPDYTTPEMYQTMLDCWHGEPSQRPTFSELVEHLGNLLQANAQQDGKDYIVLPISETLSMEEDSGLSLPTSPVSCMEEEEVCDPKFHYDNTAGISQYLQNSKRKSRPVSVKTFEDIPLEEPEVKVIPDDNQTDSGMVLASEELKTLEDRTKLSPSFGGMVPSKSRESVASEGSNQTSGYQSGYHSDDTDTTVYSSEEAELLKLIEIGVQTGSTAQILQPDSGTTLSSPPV
T2 sequence (P08581 with tags, fused parts or gaps): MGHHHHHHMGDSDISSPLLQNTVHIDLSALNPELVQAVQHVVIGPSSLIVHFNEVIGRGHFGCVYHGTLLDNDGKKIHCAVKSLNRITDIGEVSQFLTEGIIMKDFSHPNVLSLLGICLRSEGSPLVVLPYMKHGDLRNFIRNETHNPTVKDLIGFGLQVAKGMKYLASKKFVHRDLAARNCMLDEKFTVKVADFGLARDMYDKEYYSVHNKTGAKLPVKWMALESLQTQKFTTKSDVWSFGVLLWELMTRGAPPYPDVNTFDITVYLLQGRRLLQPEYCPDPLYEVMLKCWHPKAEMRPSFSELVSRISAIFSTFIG

Cc1cc(C(=O)c2c[nH]c3ncc(-c4cccc(N)c4)cc23)nn1C [Compound P-0117]
≤ 10 µM: [1] | [2] | [3] | [4] | [5] | [6] | [7]

COc1cccc(Cc2c[nH]c3ncc(-c4cccs4)cc23)c1 [Compound P-0142]
≤ 10 µM: [1] | [8] | [3] | [4] | [9] | [10] | [6] | [11]

O=C(c1ccccc1F)c1c[nH]c2ncccc12 [Compound P-0158]
≤ 10 µM: [3] | [12] | [10] | [6]

O=C1NCc2ccccc2N1Cc1c[nH]c2ncccc12 [Compound P-0194]
≤ 10 µM: [13] | [12] | [6]

COc1ccc(F)c(C(=O)c2c[nH]c3ncc(-c4cccc(NC(C)=O)c4)cc23)c1 [Compound P-0325]
≤ 10 µM: [1] | [2] | [3] | [4] | [13] | [14] | [15] | [16] | [10]

O=C(CCc1c[nH]c2ncccc12)NCc1ccccc1 [Compound P-0331]
≤ 10 µM: [12]

S=C(NCc1c[nH]c2ncccc12)Nc1cccc(Cl)c1 [Compound P-0337]
≤ 10 µM: [13] | [12] | [6]

O=C(c1cc(O)ccc1F)c1c[nH]c2ncc(-c3cccnc3)cc12 [Compound P-0559]
not listed: [2] | [7] | [8] | [12] | [14] | [21]
≤ 10 µM: all other assays above

O=C(NCc1cccc(Cl)c1)NCc1c[nH]c2ncccc12 [Compound P-0568]
≤ 10 µM: [12]

COc1cc(O)cc(Cc2c[nH]c3ncc(-c4ccsc4)cc23)c1 [Compound P-0594]
≤ 10 µM: [1] | [8] | [3] | [4] | [5] | [9] | [20] | [16] | [10]

Nc1cccc(-c2cnc3[nH]cc(C(=O)c4ccccc4F)c3c2)c1 [Compound P-0624]
not listed: [2] | [7] | [8] | [11] | [12] | [14] | [15] | [18] | [20]
≤ 10 µM: all other assays above
